Assay results as given in US9637472B2, “Substituted 6,5-fused bicyclic heteroaryl compounds” (Epizyme, Inc., priority 2011, dated 2017).
Where two headings read alike, the source gives them in different places.

Molecular target: EZH2 (Homo sapiens (Human), UniProt Q15910)
Assay: PRC2 enzyme assay on peptide substrates
Assay type: biochemical
[1] = PRC2 enzyme assays on peptide substrates, 4 nM enzyme, 30 min preincubation at 25° C., read-out: EZH2 IC50

Sequence of EZH2 (Q15910 other isoform, or with tags, fused parts or gaps): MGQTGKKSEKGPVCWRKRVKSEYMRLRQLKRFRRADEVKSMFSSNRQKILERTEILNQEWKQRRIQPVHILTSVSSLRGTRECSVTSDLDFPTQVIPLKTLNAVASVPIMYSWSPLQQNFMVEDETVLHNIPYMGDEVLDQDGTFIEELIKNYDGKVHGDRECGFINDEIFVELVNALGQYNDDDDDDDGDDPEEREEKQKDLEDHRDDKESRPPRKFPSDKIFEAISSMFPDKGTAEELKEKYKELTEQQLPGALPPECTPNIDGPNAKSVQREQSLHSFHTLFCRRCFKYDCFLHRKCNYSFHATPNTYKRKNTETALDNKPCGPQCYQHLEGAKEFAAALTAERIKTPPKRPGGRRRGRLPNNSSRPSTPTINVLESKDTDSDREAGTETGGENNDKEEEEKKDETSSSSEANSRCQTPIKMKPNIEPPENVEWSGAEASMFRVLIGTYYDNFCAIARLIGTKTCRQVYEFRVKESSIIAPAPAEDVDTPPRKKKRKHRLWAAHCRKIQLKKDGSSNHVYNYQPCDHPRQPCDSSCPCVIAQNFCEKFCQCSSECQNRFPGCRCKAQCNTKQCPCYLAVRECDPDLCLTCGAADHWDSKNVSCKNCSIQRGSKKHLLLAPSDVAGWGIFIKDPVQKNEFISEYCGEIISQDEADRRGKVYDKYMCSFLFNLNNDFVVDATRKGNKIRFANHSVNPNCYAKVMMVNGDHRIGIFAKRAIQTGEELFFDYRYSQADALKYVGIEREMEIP
Sequence of EZH2 (O75530 whole entry partner): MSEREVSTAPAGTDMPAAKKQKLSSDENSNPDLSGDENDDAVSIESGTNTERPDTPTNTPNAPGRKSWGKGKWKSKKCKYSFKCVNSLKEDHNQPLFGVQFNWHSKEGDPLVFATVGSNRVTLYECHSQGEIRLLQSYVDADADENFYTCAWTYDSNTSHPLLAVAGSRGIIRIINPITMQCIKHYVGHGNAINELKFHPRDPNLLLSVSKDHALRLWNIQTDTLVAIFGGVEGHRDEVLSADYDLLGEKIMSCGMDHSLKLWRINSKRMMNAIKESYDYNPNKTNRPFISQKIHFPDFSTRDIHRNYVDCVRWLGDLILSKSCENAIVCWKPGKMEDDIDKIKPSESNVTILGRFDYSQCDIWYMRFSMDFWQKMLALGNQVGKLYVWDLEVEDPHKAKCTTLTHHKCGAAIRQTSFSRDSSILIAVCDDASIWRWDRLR
Sequence of EZH2 (Q15022 whole entry partner): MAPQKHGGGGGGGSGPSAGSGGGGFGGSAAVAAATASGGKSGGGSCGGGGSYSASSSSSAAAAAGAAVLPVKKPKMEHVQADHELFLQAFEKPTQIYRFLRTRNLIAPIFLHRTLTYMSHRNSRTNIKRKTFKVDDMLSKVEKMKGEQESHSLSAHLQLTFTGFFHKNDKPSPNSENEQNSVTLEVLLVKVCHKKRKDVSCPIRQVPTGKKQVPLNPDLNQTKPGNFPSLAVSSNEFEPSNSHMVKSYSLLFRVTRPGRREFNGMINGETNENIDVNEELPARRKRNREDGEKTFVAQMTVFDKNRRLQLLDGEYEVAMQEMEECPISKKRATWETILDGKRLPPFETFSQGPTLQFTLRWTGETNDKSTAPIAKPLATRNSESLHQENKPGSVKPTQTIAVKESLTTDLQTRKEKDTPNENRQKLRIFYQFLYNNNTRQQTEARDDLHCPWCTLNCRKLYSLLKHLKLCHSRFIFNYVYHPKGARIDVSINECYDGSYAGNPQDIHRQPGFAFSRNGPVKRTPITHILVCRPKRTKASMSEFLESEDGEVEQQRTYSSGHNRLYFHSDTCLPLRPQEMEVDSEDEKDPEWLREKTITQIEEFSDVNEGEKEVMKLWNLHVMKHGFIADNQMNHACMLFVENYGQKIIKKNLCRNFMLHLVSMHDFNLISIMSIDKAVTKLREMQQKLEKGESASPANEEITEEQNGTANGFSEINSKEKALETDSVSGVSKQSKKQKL
Sequence of EZH2 (Q09028 whole entry partner): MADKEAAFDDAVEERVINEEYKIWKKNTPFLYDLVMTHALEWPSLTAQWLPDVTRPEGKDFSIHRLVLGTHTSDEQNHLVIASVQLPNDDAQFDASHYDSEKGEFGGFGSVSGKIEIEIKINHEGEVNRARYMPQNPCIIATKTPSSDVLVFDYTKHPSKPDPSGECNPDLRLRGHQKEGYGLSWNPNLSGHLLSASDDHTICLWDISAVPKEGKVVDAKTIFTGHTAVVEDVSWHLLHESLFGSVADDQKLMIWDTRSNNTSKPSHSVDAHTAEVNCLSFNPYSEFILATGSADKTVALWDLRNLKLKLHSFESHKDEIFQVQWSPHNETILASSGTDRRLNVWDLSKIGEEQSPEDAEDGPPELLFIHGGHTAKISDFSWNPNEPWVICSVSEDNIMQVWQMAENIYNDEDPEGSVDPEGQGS

| Compound | IC50 [1] [µM] | IC50 [µM] |
| --- | --- | --- |
| Cc1cc(C)c(CNC(=O)c2cc(-c3ccc(C(=O)NCCN(C)C)cc3)nc3c2cnn3C(C)C)c(=O)[nH]1 [Compound A-18] | < 0.3 | – |
| Cc1cc(C)c(CNC(=O)c2cc(-c3ccc(C(=O)O)cc3)nc3c2cnn3C(C)C)c(=O)[nH]1 [Compound A-53] | 1 to 3 | – |
| Cc1cc(C)c(CNC(=O)c2cc(C3=CCN(CCN)CC3)cc3c2cnn3C2CCCC2)c(=O)[nH]1 [Compound D-49] | < 0.3 | – |
| Cc1cc(CN(C)C)c(CNC(=O)c2cc(-c3ccc(CN4CCOCC4)cc3)cc3c2cnn3C2CCCC2)c(=O)[nH]1 [Compound C-26] | < 0.3 | – |
| Cc1cc(C)c(CNC(=O)c2cc(C(F)(F)F)cc3c2cnn3C2CCN(C(=O)C(C)(C)C)CC2)c(=O)[nH]1 [Compound D-23] | < 0.3 | – |
| Cc1cc(C)c(CNC(=O)c2cc(-c3cccnc3)cc3c2cnn3C2CCCC2)c(=O)[nH]1 [Compound C-21] | < 0.3 | – |
| Cc1cc(C)c(CNC(=O)c2cc(N3CCC(N4CCNCC4)CC3)nc3c2cnn3C(C)C)c(=O)[nH]1 [Compound B-44] | 0.3 to 1 | – |
| Cc1cc(C)c(CNC(=O)c2cc(CN(C)CCN(C)C)cc3c2cnn3C2CCCC2)c(=O)[nH]1 [Compound D-78] | 1 to 3 | – |
| Cc1cc(C)c(CNC(=O)c2cc(C3=CCN(C(=O)CN)CC3)cc3c2cnn3C2CCCC2)c(=O)[nH]1 [Compound D-47] | < 0.3 | – |
| Cc1cc(C)c(CNC(=O)c2cc(Br)cc3c2cnn3C2CCN(C(=O)C(C)C)CC2)c(=O)[nH]1 [Compound D-42] | < 0.3 | – |
| Cc1[nH]c(=O)c(CNC(=O)c2cc(C3=CC(C)(C)NC(C)(C)C3)nc3c2cnn3C(C)C)c(C)c1Cc1ccccc1 [Compound B-143] | 3 to 10 | – |
| Cc1cc(C)c(CNC(=O)c2cc(-c3cccc(C(=O)NCCCN(C)C)c3)nc3c2cnn3C(C)C)c(=O)[nH]1 [Compound A-13, N-((4,6-dimethyl-2-oxo-1,2-dihydropyridin-3-yl)methyl)-6-(3-((3-(dimethylamino)propyl)carbamoyl)phenyl)-1-isopropyl-1H-pyrazolo[3,4-b]pyridine-4-carboxamide] | < 0.3 | – |
| Cc1cc(C)c(CNC(=O)c2cc(C3=CCN(C)CC3)nc3c2cnn3C(C)C)c(=O)[nH]1 [Compound B-75] | – | 0.3 to 1 |
| Cc1cc(C)c(CNC(=O)c2cc(C3CCN(C4CCN(CCS(C)(=O)=O)CC4)CC3)nc3c2cnn3C(C)C)c(=O)[nH]1 [Compound B-55] | 0.3 to 1 | – |
| Cc1cc(C)c(CNC(=O)c2cc(C3=CCN(C(=O)C4CCN(C)CC4)CC3)nc3c2cnn3C(C)C)c(=O)[nH]1 [Compound B-34, N-((4,6-dimethyl-2-oxo-1,2-dihydropyridin-3-yl)methyl)-1-isopropyl-6-(1-(1-methylpiperidine-4-carbonyl)-1,2,3,6-tetrahydropyridin-4-yl)-1H-pyrazolo[3,4-b]pyridine-4-carboxamide] | < 0.3 | – |
| Cc1cc(C)c(CNC(=O)c2cc(Br)cc3c2cnn3C2CCN(C(=O)C3CCCC3)CC2)c(=O)[nH]1 [Compound D-26] | 0.3 to 1 | – |
| Cc1cc(C)c(CNC(=O)c2cc(N3CCC(N(C)C)CC3)nc3c2cnn3C(C)C)c(=O)[nH]1 [Compound B-86] | 1 to 3 | – |
| Cc1cc(C)c(CNC(=O)c2cc(C3CCN(C(=O)CN(C)C)CC3)nc3c2cnn3C(C)C)c(=O)[nH]1 [Compound B-57] | 0.3 to 1 | – |
| Cc1cc(C)c(CNC(=O)c2cccc3c2cnn3C2CCCC2)c(=O)[nH]1 [Compound D-66] | 0.3 to 1 | – |
| Cc1cc(C)c(CNC(=O)c2cc(C3=CCN(C(=O)CO)CC3)cc3c2cnn3C2CCCC2)c(=O)[nH]1 [Compound D-54] | 0.3 to 1 | – |
| Cc1cc(C)c(CNC(=O)c2cc(COCCCN(C)C)cc3c2cnn3C2CCCC2)c(=O)[nH]1 [Compound D-87] | 3 to 10 | – |
| Cc1cc(C)c(CNC(=O)c2cc(C3=CCN(C4CCN(CCS(C)(=O)=O)CC4)CC3)nc3c2cnn3C(C)C)c(=O)[nH]1 [Compound B-33, N-((4,6-dimethyl-2-oxo-1,2-dihydropyridin-3-yl)methyl)-1-isopropyl-6-(1-(1-(2-(methylsulfonyl)ethyl)piperidin-4-yl)-1,2,3,6-tetrahydropyridin-4-yl)-1H-pyrazolo[3,4-b]pyridine-4-carboxamide] | < 0.3 | – |
| CC(=O)n1ncc2c(C(=O)NCc3c(C)cc(C)[nH]c3=O)cc(C3=CC(C)(C)NC(C)(C)C3)nc21 [Compound B-154] | 10 to 50 | – |
| CNCc1cc(C)[nH]c(=O)c1CNC(=O)c1cccc2c1cnn2C1CCCC1 [Compound D-83] | 3 to 10 | – |
| Cc1cc(C)c(CNC(=O)c2cc(N3CCC(C4CCN(C)CC4)CC3)nc3c2cnn3C(C)C)c(=O)[nH]1 [Compound B-94] | 1 to 3 | – |
| Cc1cc(C)c(CNC(=O)c2cc(Br)cc3c2cnn3C2CCN(C(=O)CN(C)C)CC2)c(=O)[nH]1 [Compound D-29] | 0.3 to 1 | – |
| Cc1cc(C)c(CNC(=O)c2cc(C3=CCN(C4CCNCC4)CC3)nc3c2cnn3C(C)C)c(=O)[nH]1 [Compound B-38] | 0.3 to 1 | – |
